Test results reported in the NIST ThermoML archive (doi:10.1016/j.jct.2011.09.001).
Numbers after ± are expanded uncertainties.

How the values were obtained:
[1] = xn = mol fraction of the nth substance listed; details: 101 kPa, Liquid; for speed of sound: Sing-around technique in a fixed-path interferometer; for mass density: Vibrating tube method
[2] = refractive index (Na D-line) (dimensionless); xn = mol fraction of the nth substance listed; details: 101 kPa, Liquid, Standard Abbe refractometry

c1ccc2c(c1)CCCC2 [1,2,3,4-tetrahydronaphthalene] + CCCCCCCCCC
Details | mass density, [1] [kg/m3] | refractive index, [2] | speed of sound, [1] [m/s]
293.15 K, x1 = 0.1008 | 747.8 ± 0.3 | 1.4216 ± 0.0005 | 1269.3 ± 1.2
293.15 K, x1 = 0.2034 | 766.8 ± 0.3 | 1.4319 ± 0.0005 | 1285.2 ± 1.2
293.15 K, x1 = 0.3 | 786.3 ± 0.3 | 1.4422 ± 0.0005 | 1302.2 ± 1.2
293.15 K, x1 = 0.401 | 807.5 ± 0.3 | 1.4535 ± 0.0005 | 1320.2 ± 1.2
293.15 K, x1 = 0.494 | 828.5 ± 0.2 | 1.4648 ± 0.0005 | 1340.6 ± 1.2
293.15 K, x1 = 0.5949 | 852.8 ± 0.2 | 1.4778 ± 0.0005 | 1363.5 ± 1.2
293.15 K, x1 = 0.7009 | 880.2 ± 0.2 | 1.4925 ± 0.0005 | 1391.2 ± 1.2
293.15 K, x1 = 0.7974 | 907 ± 0.3 | 1.5071 ± 0.0005 | 1418.8 ± 1.2
293.15 K, x1 = 0.8997 | 937.9 ± 0.3 | 1.5239 ± 0.0005 | 1452.7 ± 1.2
293.15 K, x1 = 1 | 969.5 ± 0.2 | 1.5414 ± 0.0005 | 1489.5 ± 1.3
303.15 K, x1 = 0.1008 | 740.2 ± 0.3 | 1.4171 ± 0.0005 | 1230 ± 1.2
303.15 K, x1 = 0.2034 | 759.1 ± 0.3 | 1.4274 ± 0.0005 | 1246.1 ± 1.2
303.15 K, x1 = 0.3 | 778.6 ± 0.3 | 1.4376 ± 0.0005 | 1263.3 ± 1.2
303.15 K, x1 = 0.401 | 799.8 ± 0.3 | 1.449 ± 0.0005 | 1281.4 ± 1.2
303.15 K, x1 = 0.494 | 820.8 ± 0.3 | 1.4602 ± 0.0005 | 1301.9 ± 1.2
303.15 K, x1 = 0.5949 | 845.1 ± 0.2 | 1.4733 ± 0.0005 | 1324.9 ± 1.2
303.15 K, x1 = 0.7009 | 872.4 ± 0.2 | 1.488 ± 0.0005 | 1352.5 ± 1.2
303.15 K, x1 = 0.7974 | 899.1 ± 0.3 | 1.5026 ± 0.0005 | 1380.1 ± 1.2
303.15 K, x1 = 0.8997 | 930 ± 0.3 | 1.5193 ± 0.0005 | 1413.8 ± 1.2
303.15 K, x1 = 1 | 961.6 ± 0.2 | 1.5367 ± 0.0005 | 1450.1 ± 1.2
313.15 K, x1 = 0.1008 | 732.6 ± 0.3 | 1.4126 ± 0.0005 | 1191.3 ± 1.2
313.15 K, x1 = 0.2034 | 751.5 ± 0.3 | 1.4229 ± 0.0005 | 1207.6 ± 1.2
313.15 K, x1 = 0.3 | 770.9 ± 0.3 | 1.4331 ± 0.0005 | 1224.9 ± 1.2
313.15 K, x1 = 0.401 | 792.1 ± 0.3 | 1.4445 ± 0.0005 | 1243.1 ± 1.2
313.15 K, x1 = 0.494 | 812.9 ± 0.3 | 1.4556 ± 0.0005 | 1263.8 ± 1.2
313.15 K, x1 = 0.5949 | 837.3 ± 0.3 | 1.4688 ± 0.0005 | 1286.8 ± 1.2
313.15 K, x1 = 0.7009 | 864.7 ± 0.2 | 1.4835 ± 0.0005 | 1314.5 ± 1.2
313.15 K, x1 = 0.7974 | 891.4 ± 0.3 | 1.498 ± 0.0005 | 1342.1 ± 1.2
313.15 K, x1 = 0.8997 | 922.1 ± 0.3 | 1.5148 ± 0.0005 | 1375.5 ± 1.2
313.15 K, x1 = 1 | 953.7 ± 0.2 | 1.5321 ± 0.0005 | 1411.5 ± 1.2
323.15 K, x1 = 0.1008 | 724.9 ± 0.3 | 1.4081 ± 0.0005 | 1153.1 ± 1.2
323.15 K, x1 = 0.2034 | 743.8 ± 0.3 | 1.4183 ± 0.0005 | 1169.6 ± 1.2
323.15 K, x1 = 0.3 | 763.2 ± 0.3 | 1.4285 ± 0.0005 | 1187.1 ± 1.2
323.15 K, x1 = 0.401 | 784.3 ± 0.3 | 1.4399 ± 0.0005 | 1205.4 ± 1.2
323.15 K, x1 = 0.494 | 805.2 ± 0.3 | 1.4511 ± 0.0005 | 1226.2 ± 1.2
323.15 K, x1 = 0.5949 | 829.5 ± 0.3 | 1.4642 ± 0.0005 | 1249.3 ± 1.2
323.15 K, x1 = 0.7009 | 856.8 ± 0.3 | 1.479 ± 0.0005 | 1277.1 ± 1.2
323.15 K, x1 = 0.7974 | 883.6 ± 0.3 | 1.4933 ± 0.0005 | 1304.6 ± 1.2
323.15 K, x1 = 0.8997 | 914.2 ± 0.3 | 1.5102 ± 0.0005 | 1337.9 ± 1.2
323.15 K, x1 = 1 | 945.7 ± 0.2 | 1.5274 ± 0.0005 | 1373.6 ± 1.2
333.15 K, x1 = 0.1008 | 717.2 ± 0.3 | 1.4035 ± 0.0005 | 1115.5 ± 1.2
333.15 K, x1 = 0.2034 | 736 ± 0.3 | 1.4137 ± 0.0005 | 1132.1 ± 1.2
333.15 K, x1 = 0.3 | 755.4 ± 0.3 | 1.4238 ± 0.0005 | 1149.8 ± 1.2
333.15 K, x1 = 0.401 | 776.5 ± 0.3 | 1.4355 ± 0.0005 | 1168.2 ± 1.2
333.15 K, x1 = 0.494 | 797.3 ± 0.3 | 1.4463 ± 0.0005 | 1189.2 ± 1.2
333.15 K, x1 = 0.5949 | 821.6 ± 0.3 | 1.4597 ± 0.0005 | 1212.4 ± 1.2
333.15 K, x1 = 0.7009 | 849 ± 0.3 | 1.4744 ± 0.0005 | 1240.2 ± 1.2
333.15 K, x1 = 0.7974 | 875.7 ± 0.3 | 1.4887 ± 0.0005 | 1267.8 ± 1.2
333.15 K, x1 = 0.8997 | 906.3 ± 0.3 | 1.5055 ± 0.0005 | 1300.9 ± 1.2
333.15 K, x1 = 1 | 937.8 ± 0.2 | 1.5228 ± 0.0005 | 1336.4 ± 1.2
343.15 K, x1 = 0.1008 | 709.3 ± 0.3 | 1.3988 ± 0.0005 | 1078.4 ± 1.2
343.15 K, x1 = 0.2034 | 728.2 ± 0.3 | 1.4092 ± 0.0005 | 1095.2 ± 1.2
343.15 K, x1 = 0.3 | 747.6 ± 0.3 | 1.4192 ± 0.0005 | 1113.2 ± 1.2
343.15 K, x1 = 0.401 | 768.7 ± 0.3 | 1.4308 ± 0.0005 | 1131.6 ± 1.2
343.15 K, x1 = 0.494 | 789.5 ± 0.3 | 1.4418 ± 0.0005 | 1152.9 ± 1.2
343.15 K, x1 = 0.5949 | 813.7 ± 0.3 | 1.4549 ± 0.0005 | 1176.1 ± 1.2
343.15 K, x1 = 0.7009 | 841.1 ± 0.3 | 1.4697 ± 0.0005 | 1204.1 ± 1.2
343.15 K, x1 = 0.7974 | 867.7 ± 0.3 | 1.4841 ± 0.0005 | 1231.5 ± 1.2
343.15 K, x1 = 0.8997 | 898.4 ± 0.3 | 1.5008 ± 0.0005 | 1264.7 ± 1.2
343.15 K, x1 = 1 | 929.8 ± 0.2 | 1.518 ± 0.0005 | 1299.8 ± 1.2
